Reference: patent US20170071928A1, “METHODS AND PHARMACEUTICAL COMPOSITIONS FOR TREATING DISEASES ASSOCIATED WITH ALTERED SERT ACTIVITY” (THE TRUSTEES OF COLUMBIA UNIVESITY IN THE CITY OF NEW YORK, priority 2014, published 2017)
Like-named read-outs stand apart in the source and are kept apart here.

How the values were obtained:
[1] = system: ENCDC isolated from E15 fetal mouse gut; test: Development/survival of enteric neurons from cultured ENCDC isolated from E15 fetal mouse gut; type: cell-based; conditions: ENCDC culture; for development/survival of early-born (calretinin) neurons / development/survival of late-born enteric neurons that express TH or GABA / effect on development/survival of late-born neurons compared with total neurons / development/survival of total enteric neurons: serum-free media; for development/survival of early-born (calretinin) neurons / development/survival of late-born enteric neurons that express TH or GABA / effect on development/survival of late-born neurons compared with total neurons: 2.5 μM; for development/survival of total enteric neurons: prucalopride 2.5 μM, BIMU-8 2.5 μM
Method: Immunocytochemistry was performed as follows: HuC/D, TH, g-aminobutyric acid (GABA), nNOS, and CGRP were located immunocytochemically to determine the abundance of total, dopaminergic, GABAergic, nitrergic and CGRP-expressing enteric neurons in G56A mice and their respective WT littermates. SERT immunoreactivity was also investigated to determine whether or not it is coincident with TH immunoreactivity in the myenteric plexus. In each experimental group, tissue samples were collected from ilea of 6-8 animals, fixed with 4% formaldehyde for 1.5 hours and washed in PBS. Whole mount preparations of longitudinal muscle with attached myenteric plexus (LMMP) were prepared by dissection. Cultured cells were fixed with 4% formaldehyde for 30 minutes and washed in PBS. Preparations were blocked with 10% normal horse serum for 30 minutes at room temp and then incubated for 48 or 72 hours at 4° C. with primary antibodies. Bound primary antibodies were visualized, respectively, with streptavidin-Alexa 594 for mouse monoclonal antibodies, and donkey antibodies to goat, rabbit, or sheep IgG coupled to Alexa 350, 488 or 594 (diluted 1:200; Invitrogen). Preparations were washed with PBS, mounted in buffered glycerol, and examined with a Leica CTR 6000 microscope. Images were obtained with a cooled CCD camera and analyzed with computer assistance (Volocity 5.4 imaging software; Improvision, Waltham, Mass.). To count the numbers of HuC/D-immunoreactive cells in each LMMP preparation, a motorized stage under computer control was used to scan and collect images with a 40× objective covering the entirety of a 10 mm^2 area. To count the numbers of CGRP-, nNOS- and TH-immunoreactive cells a similar procedure was used, except that images were collected with a 20× objective and that an area of 30 mm^2 was scanned. The higher magnification was needed for HuC/D-immunoreactive cells to be certain that overlapping cells could be distinguished. The lower magnification was advantageous for TH-immunoreactive cells, which are widely separated and relatively rare, because the cells were scattered and large numbers could be imaged for statistical reliability. The collected images were processed using a computer running Volocity 5.6 software to determine the numbers of immunoreactive cells of each type, which were presented as cells/mm^2. TH-immunoreactive terminal axons in the myenteric plexus of ileum of four G56A SERT and four WT mice were examined to study the effects of G56A SERT on the density of extrinsic sympathetic terminals. Sympathetic axons are far more abundant that dopaminergic axons in the myenteric plexus. Their large varicosities and coarse structure also distinguish sympathetic from dopaminergic axons. Dopaminergic neurons, moreover, are primarily located in the submucosal plexus. In each preparation, 3 images were obtained with a 40× objective. The total area occupied by TH-immunoreactive terminals in each image was obtained with computer assistance (Volocity 5.6 software; Improvision, Perkin Elmer).
The hypothesis was tested that 5-HT-promoted enteric neurogenesis is 5-HT4-mediated. The responsible receptor was also sought. ENCDC were isolated from E15 fetal mouse gut with antibodies to p75NTR and cultured in serum-free media. […] The 5-HT4 antagonist, GR113808 (1.0 μM), prevented 5-HT, prucalopride, or BIMU-8 from enhancing development/survival of total dopaminergic or GABAergic neurons.

[2] = system: wild-type adult mice and mice lacking 5-HT4 receptors; conditions: cited from earlier work
G56A mice [3] = test: GI motility in mature offspring after prenatal and nursing prucalopride treatment, G56A mice; type: in vivo, mouse; conditions: prucalopride oral in dams' drinking water (24 mg in 350 ml) from early pregnancy until weaning, then stopped
Method: (§1) Carmine red, which cannot be absorbed from the lumen of the gut, was used to study total GI transit time (Kimball et al., 2005). A solution of carmine red (300 μl; 6%; Sigma Aldrich, St. Louis, Mo.) suspended in 0.5% methylcellulose (Sigma Aldrich, St. Louis, Mo.) was administered by gavage through a 21-gauge round-tip feeding needle. The time at which gavage took place was recorded as TO. After gavage, fecal pellets were monitored at 10 minutes intervals for the presence of carmine red. Total GI transit time was considered as the interval between TO and the time of first observance of carmine red in stool.
(§2) Colonic motility was studied as previously described (Li et al., 2006). Briefly, the animals were anesthetized with isoflurane (Baxter Pharmaceutical Products Inc, Deerfield, Ill.). A glass bead (3 mm in diameter) was pushed into the colon to a distance of 2 cm from the anal verge. The time required for expulsion of the glass bead was measured and taken as an estimate of colonic motility.
(§3) The dose of prucalopride was 24 mg into 350 ml of water and the mice were assumed to drink about 5 ml/day. After birth, the prucalopride was continued in the drinking water, and was thus delivered to the newborn and suckling pups via breast milk. When the pups were weaned, the prucalopride was stopped; therefore, the exogenous 5-HT4 stimulation was allowed to cease. […]

WT mice = test: GI motility in mature offspring after prenatal and nursing prucalopride treatment, WT mice; type: in vivo, mouse; conditions: prucalopride treatment of fetal and nursing mice
Method: as §1, §2, §3

G56A mice [4] = test: Small intestinal transit (rhodamine B dextran geometric center) with exogenous 5-HT; type: in vivo, mouse; conditions: G56A mice compared to WT mice (FIG. 2D)
Method: For analysis of gastric emptying and small intestinal transit, mice were fasted overnight in cages that lacked bedding. Water was withdrawn 3 hours before the experiment. A solution containing rhodamine B dextran (100 μl; 10 mg/ml in 2% methylcellulose, Invitrogen, Carlsbad, Calif.) was administered to each mouse by gavage through a 21-gauge round-tip feeding needle. Animals were euthanized 15 minutes after gavage; the stomach, small intestine, cecum, and colon were collected in 0.9% NaCl. The small intestine was divided into 10 segments of equal length and the colon (used to obtain total recovered rhodamine B fluorescence) was divided in half. […] Rhodamine fluorescence was measured in 1 ml aliquots of the supernatant (VersaFluor™ Fluorometer; BIO-RAD Laboratories, Hercules, Calif.). The proportion of the Rhodamine B dextran that emptied from the stomach was calculated as [(total recovered fluorescence−fluorescence remaining in the stomach)/(total recovered fluorescence)]×100.
Small intestinal transit was estimated by the position of the geometric center of the Rhodamine B dextran in the small bowel (Miller et al., 1981). For each segment of the small intestine (1-10), the geometric center (a) was calculated as: a=(fluorescence in each segment×number of the segment)/(total fluorescence recovered in the small intestine). […]

SMILES | antagonism of the enhancement by 5-HT, prucalopride or BIMU-8 of development/survival of total dopaminergic or GABAergic neurons ([1]; GR113808 1.0 μM) | development/survival of early-born (calretinin) neurons [1] | development/survival of late-born enteric neurons that express TH or GABA [1] | effect on development/survival of late-born neurons compared with total neurons [1] | development/survival of total enteric neurons [1] | enteric neurogenesis ([2]; adult mice lacking 5-HT4 receptors) | enteric neurogenesis ([2]; wild-type adult mice) | GI motility in offspring at ages 2-3 months (G56A mice [3]) | GI motility in the mature animals (WT mice) | ability to accelerate small intestinal transit (G56A mice [4])
Cn1cc(C(=O)OCC2CCN(CCNS(C)(=O)=O)CC2)c2ccccc21 [GR113808] | prevented | – | – | – | – | – | – | – | – | –
CC(C)n1c(=O)n(C(=O)NC2CC3CCC(C2)N3C)c2ccccc21 (stereo not drawn) [BIMU-8] | – | Neither prucalopride nor BIMU-8 enhanced | increased development/survival | significantly greater than on total | enhanced the development/survival of total enteric neurons | – | – | – | – | –
COCCCN1CCC(NC(=O)c2cc(Cl)c(N)c3c2OCC3)CC1 [prucalopride] | – | Neither prucalopride nor BIMU-8 enhanced | increased development/survival | significantly greater than on total | enhanced the development/survival of total enteric neurons | not in those lacking 5-HT4 receptors | stimulate enteric neurogenesis | restored to normal | not found to exert significant effects | –
NCCc1c[nH]c2ccc(O)cc12 [5-HT, 5-hydroxytryptamine] | – | – | – | – | enhanced the development/survival of total enteric neurons | – | – | – | – | impaired
